# US20220193076A1, “METHODS OF TREATING BREAST CANCER WITH TUCATINIB” (Seagen Inc., priority 2019, published 2022)
# Tests used:
# [1] = biological target: T1, organic cation transporter (OCT)2 (Homo sapiens, UniProt O15244); assay: In vitro inhibition of OCT2 activity; type: in vitro ADME; details: read-out: 50% inhibitory concentration (IC50), OCT2
# T1 sequence (O15244 1-555): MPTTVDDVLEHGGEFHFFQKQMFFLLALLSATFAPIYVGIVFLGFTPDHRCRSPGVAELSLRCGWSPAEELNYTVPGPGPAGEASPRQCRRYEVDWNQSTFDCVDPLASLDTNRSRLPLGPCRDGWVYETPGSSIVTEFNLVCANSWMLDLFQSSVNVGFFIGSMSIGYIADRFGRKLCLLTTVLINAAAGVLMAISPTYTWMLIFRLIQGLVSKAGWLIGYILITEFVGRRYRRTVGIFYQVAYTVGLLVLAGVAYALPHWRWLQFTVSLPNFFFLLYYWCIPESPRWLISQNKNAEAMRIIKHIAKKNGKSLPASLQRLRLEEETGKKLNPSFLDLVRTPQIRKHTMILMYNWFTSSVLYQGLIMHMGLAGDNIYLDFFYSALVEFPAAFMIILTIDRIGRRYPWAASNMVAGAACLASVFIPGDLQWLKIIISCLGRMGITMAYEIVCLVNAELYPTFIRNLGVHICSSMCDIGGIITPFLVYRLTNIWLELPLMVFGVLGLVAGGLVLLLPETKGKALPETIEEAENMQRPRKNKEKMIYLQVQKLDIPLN
# [2] = Example 1: plasma tucatinib trough concentrations; type: in vivo, human; details: 300 mg tucatinib bid from Day 2
# [3] = Clinical plasma concentration of tucatinib; type: in vivo; details: human, read-out: Mean clinical maximum observed concentration (Cmax)
# [4] = biological target: CYP3A4 (Homo sapiens, UniProt P08684); assay: Example 2 Part A: effect of strong CYP3A4 inhibitor itraconazole on PK of tucatinib; type: in vivo; design: endogenous in cells; host or cells: healthy human subjects, in vivo; details: tucatinib 300 mg single dose in combination with itraconazole vs tucatinib alone
# Experimental: A primary objective of the study is to assess the effect of a strong CYP3A4 inhibitor (itraconazole) on the single-dose PK of tucatinib. […] They were discharged on Day 8 after completion of the in-patient assessments. […] On Day 3, each subject received oral doses of 200 mg of itraconazole, twice daily (BID). From Day 4 to Day 7, each subject received single oral doses of 200 mg of itraconazole once daily (QD). Itraconazole was administered in the fed state (within 5 minutes after completion of meals). On Day 6, each subject received a single oral dose of 300 mg of tucatinib at about 2 hours after the completion of breakfast and after itraconazole in the morning. […] Other noncompartmental PK parameters may be reported. Additionally, blood samples were collected for determination of trough levels of itraconazole prior to morning dosing on the days indicated in FIG. 5.
# Chain of CYP3A4 (P08684 whole entry): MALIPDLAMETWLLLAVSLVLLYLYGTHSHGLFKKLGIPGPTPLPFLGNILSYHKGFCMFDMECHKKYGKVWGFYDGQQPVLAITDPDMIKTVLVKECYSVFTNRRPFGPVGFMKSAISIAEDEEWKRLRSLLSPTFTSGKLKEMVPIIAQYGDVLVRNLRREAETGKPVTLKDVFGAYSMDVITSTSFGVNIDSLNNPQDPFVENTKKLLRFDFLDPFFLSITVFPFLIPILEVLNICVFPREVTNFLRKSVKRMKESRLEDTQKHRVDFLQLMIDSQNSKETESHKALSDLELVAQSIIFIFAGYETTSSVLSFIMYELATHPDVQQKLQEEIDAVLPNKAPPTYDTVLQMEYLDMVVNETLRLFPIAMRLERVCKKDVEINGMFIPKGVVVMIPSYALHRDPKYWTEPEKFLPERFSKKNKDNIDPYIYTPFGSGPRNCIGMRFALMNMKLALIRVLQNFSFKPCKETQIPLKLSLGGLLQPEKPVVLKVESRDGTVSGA
compound,measurement,setting,value
Cc1cc(Nc2ncnc3ccc(NC4=NC(C)(C)CO4)cc23)ccc1Oc1ccn2ncnc2c1 [tucatinib],IC50,[1],14.7 µM
same,Steady-state plasma concentrations reached by,[2],≤ 6 days
same,Cmax,[3],1000 to 2000 nM
same,"Geometric LS mean ratio (90% CI), AUC0-∞",[4],"1.34 (1.26, 1.43)"
same,"Geometric LS mean ratio (90% CI), AUClast",[4],"1.33 (1.25, 1.41)"
same,"Geometric LS mean ratio (90% CI), Cmax",[4],"1.32 (1.23, 1.42)"
